Values of other authors, collected in patent US20200101029A1, “METHOD AND SYSTEM FOR PRESERVING COGNITIVE CAPACITY DURING AGING” (priority 2018, published 2020).
Read-outs that look alike come from different tables or passages of the source.

How the values were obtained:
[1] = 1 gram per day (500 mg twice daily)
[2] = tested on: mice exposed to bleomycin
[3] = human cohort study
[4] = tested on: genetically-engineered fly; conditions: spermidine feeding during all their lives
[5] = murine models
[6] = tested on: rat model of Alzheimer's disease

## O=c1c(O)c(-c2ccc(O)c(O)c2)oc2cc(O)cc(O)c12 [quercetin]
[1]
  patients with improvement of symptoms of at least 25 percent: more than 67%
  tolerability: well tolerated

## NCCCCNCCCN [spermidine]
[2]; pre-treatment with spermidine
  accumulation of damaging protein in the mouse lung: could reduce or prevent
[2]; subsequent dosing, even at higher dose
  removal of established scar tissue in the lung: did not remove it
[3]
  safety and tolerability of supplementation: safe and excellently tolerated
[4]
  aging-associated abnormal protein (excess presynaptic vesicles in olfactory neurons): prevented
  fly memory over aging: preserved over aging
[5]
  safety and tolerability of supplementation: safe and excellently tolerated

## Bifidobacterium
[6]
  effect on memory deficit: improving memory deficit
